Laboratory results published in PubChem BioAssay AID179 (DTP/NCI, 2004).
Where “and” joins values, the source holds several entries; their conditions need not be identical. Equal values may be shown once. Calls of active or inactive are those of the source.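 The calls were made as follows: active = compounds giving half or more protection of infected cells from virus-caused growth loss, again on retest; inactive = the rest.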 *1 amine or outer side, *2 acyl side, *3 side chain or, on linkers, in order; H or OH if unused. Where a SMILES comes first, the peptide text is derived from it. Bridges are numbered along the chain shown (N, C = ends). [ ]: non-standard residue; d: D form. The star is where a group is joined. ξ: configuration not given here. Fmoc = O=C(OCC1c2ccccc2-c2ccccc21)*; X2 = O=C(C(CCCCNO[*:3])N[*:1])[*:2]; ξW = NC(Cc1c[nH]c2ccccc12)C(=O)O; ξP = O=C(O)C1CCCN1

Test system: CEM cells HIV-1 protection, formazan growth assay
Assay: NCI AIDS Antiviral Assay
Conditions: for IC50: measured here: growth of uninfected CEM cells
How it was run: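 CEM (human) cells, HIV-1 infected vs uninfected, 5-point dosing, formazan growth read-out. Retest threshold 50% protection.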

| SMILES | outcome | EC50 | IC50 |
| --- | --- | --- | --- |
| CCCCC[C@@H]1CCCC2C1CCC(CCCCCO)N2C(=O)OCC(Cl)(Cl)Cl (stereo partly drawn) | inactive |  |  |
| COC1=CC(=O)C(OC)=C(C2C(=O)N(C)c3ccccc32)C1=O (stereo not drawn) |  | > 200 µM | 61.7 µM |
| COc1cc(Nc2nc3cc(C(F)(F)F)ccc3nc2-c2ccccc2)cc(OC)c1OC |  | > 41.7 µM | > 41.7 µM |
| CC1=NN(C(=O)CC(=O)Nc2cccc(C)c2)C(=O)C1N=Nc1ccc(S(=O)(=O)c2ccc(N=NC3C(=O)N(C(=O)CC(=O)Nc4cccc(C)c4)N=C3C)cc2)cc1 (stereo not drawn) |  | > 50.1 µM | > 50.1 µM |
| Oc1ccc(C(=C(Br)c2ccccc2)c2ccc(O)cc2)cc1 |  | > 200 µM | 3.98 µM |
| O=[N+]([O-])/C(C(Cl)=C(Cl)Cl)=C(\SCc1ccccc1)N1CCCCC1 |  | > 200 µM | > 200 µM |
| Cc1cccc(-n2c(N)c(-c3nc4ccccc4[nH]3)sc2=S)c1 |  | > 5.89 µM | > 5.89 µM |
| COC1Cc2c(C)c(OC(C)=O)c3cccnc3c2O1 (stereo not drawn) |  | > 200 µM | 22.4 µM |
| O=C1/C(=C/c2ccccc2)N=C2Sc3c(nc[nH]c3=O)N12 | inactive |  |  |
| O=C1/C(=C\c2ccccc2)CN(C(=O)CCN2CCCCC2)C/C1=C/c1ccccc1 |  | > 151 µM | 0.794 µM |
| CCOC(=O)C(=O)/C(=C/N1CCNC1=S)C(=O)OCC | inactive |  |  |
| C/C(CC(=O)Nc1cc(C)ccc1C)=N\NC(=O)c1ccncc1 |  | > 398 µM | 20.9 µM |
| O=C(CC1(O)C(=O)Nc2c(Cl)ccc(Cl)c21)c1ccc(Cl)cc1 (stereo not drawn) |  | > 51.3 µM | > 51.3 µM |
| CCN=C1NN=C(c2ccccc2)c2cc(Cl)ccc2N1 |  | > 120 µM | 21.9 µM |
| C/C(=N\NS(=O)(=O)c1ccc(C)cc1)c1ccccn1 |  | > 200 µM | 58.9 µM |
| Nc1ncnc2c1ncn2C1OC(CO)CC1F (stereo not drawn) |  |  | > 200 µM and 191 µM |
| CCOC(=O)Nn1cnnc1Cc1ccccc1 |  | > 200 µM | > 200 µM |
| O=C(N/C(=C\c1ccc(Cl)cc1)c1nc2ccccc2[nH]1)c1ccccc1 |  | > 69.2 µM | 58.9 µM |
| CN1CC2CN(Cc3ccccc3)CCN2c2cccnc21 (stereo not drawn) |  | > 200 µM | 81.3 µM |
| C/C(=N/NS(=O)(=O)c1ccc(N)cc1)c1ccccc1O |  | > 117 µM | > 117 µM |
| O=C1NC(N/N=C\C(O)C(O)C(O)CO)=N/C1=C/c1ccccc1 (stereo not drawn) |  | > 200 µM and 38 µM | 89.1 µM and 105 µM |
| CC(C)=CCC/C(C)=C\C=N/O |  | > 155 µM | 8.13 µM |

| SMILES | outcome | EC50 | IC50 |
| --- | --- | --- | --- |
| C(=N\NC1=NCCN1)/c1ccc2ccccc2c1 |  | > 200 µM | 22.9 µM |
| CC1(Cl)CC(O)C2(CC1Br)C1(C)OC1C1OC1(Br)C2(C)C (stereo not drawn) |  | > 200 µM | 15.1 µM |
| CC(C)(C)[Si](C)(C)OCC1OC(n2ccc(=O)[nH]c2=O)C(O[Si](C)(C)C(C)(C)C)[C@]12N[C@H](C(N)=O)CS2 (stereo partly drawn) |  | > 200 µM | 5.25 µM |
| CCCCCCCCCCCC(=O)OCC(C[As](=O)(O)O)OC(=O)CCCCCCCCCCC (stereo not drawn) |  | > 200 µM | 1.82 µM |
| COC(=O)c1c2c(cc3c1CC1(Cc4cc5c(cc4C1=O)CCC5)C3)CCC2 (stereo not drawn) |  | > 200 µM | 52.5 µM |
| Cc1ccc(S(=O)(=O)SC/C=C\CSS(=O)(=O)c2ccc(C)cc2)cc1 | inactive |  |  |
| Cc1ccc(N=Nc2c(C)nn(C(=O)CC(=O)Nc3ccc(Cl)cc3)c2C)cc1C |  | > 200 µM | > 200 µM |
| O=c1c(C=Nc2ccc([N+](=O)[O-])cc2)c(O)n(-c2ccccc2)c(=O)n1-c1ccccc1 |  | > 200 µM | 21.4 µM |
| COC1(C)C(=O)N(C)C1c1ccccc1 (stereo not drawn) |  | > 200 µM | > 200 µM |
| CCc1cc(-c2cccc3ccccc23)c(C#N)c(=S)[nH]1 |  | > 200 µM | 32.4 µM |
| O=S(=O)(O)CCS(=O)(=O)O |  | > 200 µM | > 200 µM |
| CN(C)CC1CCCCCCCCCCCCC(CN(C)C)C1=O (stereo not drawn) |  | > 21.4 µM | > 21.4 µM |
| CCCCCCCC(=O)OC(CBr)COC(=O)C(C)(C)C (stereo not drawn) |  | > 251 µM | 191 µM |
| O=C1CCC2(CC1)Cc1ccccc1C2O (stereo not drawn) |  | > 200 µM | > 200 µM |
| Cc1ccc([N+](=O)[O-])cc1NC(=O)C(=O)Cc1occc(=O)c1O | inactive |  |  |
| CC(C)(C)O/N=C/c1cc(NC(=S)c2ccsc2)ccc1Cl |  | 2.14 µM | 9.55 µM |
| Fc1ccc(N=C/C=C/Nc2ccc(F)cc2)cc1 | inactive |  |  |
| Nc1nc(N)c2ncn(C3OC(CO)CC3F)c2n1 (stereo not drawn) |  | 34.7 µM | 93.3 µM |
| O=[N+]([O-])C(C(Cl)=C(Cl)Cl)=C(n1nnc2ccccc21)n1nnc2ccccc21 |  | > 200 µM | 26.9 µM |
| O=S(=O)(CC#CCO)c1ccccc1 | inactive |  |  |
| O[C@@H]1CO[C@H]2[C@@H]1OC[C@@H]2O |  | > 200 µM | > 200 µM |
| O=[N+]([O-])c1cccnc1-n1cnc2ccccc21 |  | > 200 µM | > 100 µM |

| SMILES | outcome | EC50 | IC50 |
| --- | --- | --- | --- |
| CC1(C2=CCCCC2)CCC(=O)NC1=O (stereo not drawn) |  | > 200 µM | > 200 µM |
| CNC(=O)CCCN(C)C(=O)CCCCC(=O)N(C)C |  | > 200 µM | > 200 µM |
| Cc1ccnn1CCc1ccc(Cl)cc1Cl |  | > 200 µM | 95.5 µM |
| CC12CCC(=O)C=C1CCC1C2CCC2(C)C1CCC2(O)C1(O)CCC2C3CCC4=CC(=O)CCC4(C)C3CCC21C (stereo not drawn) |  | > 100 µM | 55 µM |
| C=CCN(c1cc(OC)c2[nH]cc(C)c2c1[N+](=O)[O-])S(C)(=O)=O |  | 97.7 µM | > 100 µM |
| CC(C)=NNc1snnc1C(N)=O |  | > 200 µM | > 200 µM |
| NCCn1c(-c2ccccc2)nc2ccccc2c1=O |  | > 200 µM | 123 µM |
| CCSC1(SCC)CCN(C=NC(C)(C)C)C1 |  | > 912 µM | > 912 µM |
| COc1cc(N)c2c(c1)SCCC(=O)N2 |  | > 200 µM | > 200 µM |
| COc1ccc(OC)c(CSc2ccc(OC)c(OC)c2)c1 |  | > 200 µM | 85.1 µM |
| CC(=O)NS(=O)(=O)c1ccc(NC(=O)c2ccccc2SC(C)=O)cc1 |  | 17 µM | 112 µM |
| O=C(O)CCc1ccc2c(c1)C(=O)CC2 |  | > 200 µM | > 200 µM |
| O=C(O)CCC(NC(=O)c1ccc(Oc2nc3ccccc3nc2-c2ccccc2)cc1)C(=O)O (stereo not drawn) |  | > 200 µM | > 200 µM |
| O=C(/C=C/c1ccc(O)cc1)OC[C@@H](O)COC1OC(CO)C(O)C(O)C1O (stereo partly drawn) | inactive |  |  |
| COC12OCCN(C)C1=CC(=O)C1(C)N=NCC12 (stereo not drawn) | inactive |  |  |
| Cc1cc(C)nc(NS(=O)(=O)c2ccc(NC(=O)c3cccc4c(Nc5ccc(S(=O)(=O)Nc6cc(C)on6)cc5)c5ccccc5nc34)cc2)n1 |  | > 35.5 µM | > 35.5 µM |
| Cc1nn2c(=O)c3c([N+](=O)[O-])c(C)nn3c(=O)c2c1[N+](=O)[O-] |  | > 562 µM | > 562 µM |
| COc1ccc2c(c1)[n+]([O-])c(S(=O)(=O)c1ccc(C)cc1)c(N)[n+]2[O-] | inactive |  |  |
| c1ccc(C2OCCO2)c(OCCOc2cc(OCCOc3ccccc3C3OCCO3)c(OCCOc3ccccc3C3OCCO3)cc2OCCOc2ccccc2C2OCCO2)c1 |  | > 7.94 µM | > 7.94 µM |
| O=C1OCC2C(=O)OCC12 (stereo not drawn) |  | > 200 µM | > 200 µM |
| CCc1ccc(/C=C/C(=O)C2CN(CC)CCC2(O)/C=C/c2ccc(CC)cc2)cc1 (stereo not drawn) |  | > 200 µM | 4.37 µM |
| COc1ccc(C(=O)C(c2ccc(OC)cc2)C2(O)C(=O)Nc3ccc([N+](=O)[O-])cc32)cc1 (stereo not drawn) |  | > 79.4 µM | > 79.4 µM |

| SMILES | outcome | EC50 | IC50 |
| --- | --- | --- | --- |
| CCOC(=O)c1ccc(Nc2nc3ccccc3nc2C(=O)OCC)cc1 |  | > 200 µM | > 200 µM |
| COC(=O)c1ccccc1NC(c1ccccn1)c1ccc2cccnc2c1O (stereo not drawn) |  | > 25.7 µM | 1.32 µM |
| COc1ccc(C=O)c(NC(=O)C(C)C)c1 | inactive |  |  |
| O=[As](O)(O)c1ccc(Nc2nc(Cl)nc(Cl)n2)cc1 |  | > 200 µM | > 200 µM |
| O=C(Nc1ccc(N=Nc2ccc(O)c(C(=O)O)c2)cc1)Nc1ccc(N=Nc2ccc(O)c(C(=O)O)c2)cc1 |  | > 200 µM | 141 µM |
| N#Cc1c(N)oc(-c2ccccc2)c1-c1ccccc1 | inactive |  |  |
| CN(C)C1C(=O)C(C(=O)NCN2CCOB(c3ccccc3)OCC2)=C(O)C2(O)C(O)=C3C(=O)C4C(O)=CC=CC4C(C)(O)C3CC12 (stereo not drawn) |  | 31.6 µM | 39.8 µM |
| CCC1(C)C=Cc2c(cc(O)c3c(=O)c4ccccc4n(C)c23)O1 (stereo not drawn) |  | > 200 µM | > 200 µM |
| CC(=O)OC(C)(C)CCC(=O)[C@](C)(O)[C@H]1[C@H](O)C[C@@]2(C)[C@@H]3CCc4c(cc(OC5OC(CO)C(O)C(O)C5O)c(O)c4C)C3(C)C(=O)C[C@]12C (stereo partly drawn) |  | > 200 µM | > 200 µM |
| NC(=O)CNC(=O)C1CCCN1C(=O)C1CCCCNOC(=O)CC[C@@H](NC(=O)OCC2c3ccccc3-c3ccccc32)C(=O)NC(Cc2c[nH]c3ccccc23)C(=O)N1 (stereo partly drawn) (Fmoc-[dE][ξW][X2][ξP]G-NH2; ester 1-3) |  | > 100 µM | > 100 µM |
| Oc1ccc(CCl)c2cccnc12 |  | > 562 µM | 10.2 µM |
| COC(=O)C(C(=O)C(=O)NC1=C(Cl)C(=O)c2ccccc2C1=O)c1csc(-n2nc(-c3ccccc3)cc2-c2ccccc2)n1 (stereo not drawn) |  | > 11.2 µM | > 11.2 µM |
| O=C1CC(C(CC(=O)c2ccccc2)c2ccccc2)C(=O)c2ccccc2N1 (stereo not drawn) |  | > 200 µM | 12.6 µM |
| CCOC(=O)C1CCN(C(=O)c2ccccc2)c2scc(-c3ccccc3)c2C1=O (stereo not drawn) |  | > 100 µM | 13.8 µM |
| COc1ccc(C2CC(=O)c3c(cc(OC)c(OC)c3OC)O2)cc1 (stereo not drawn) |  | > 200 µM | 20.9 µM |
| O=C1OC(=O)c2cnccc21 | inactive |  |  |
| OC1[C@H]([C@H]2CCCC[C@@H]2O)CCC[C@@H]1[C@@H]1CCCC[C@H]1O (stereo partly drawn) |  | > 170 µM | > 170 µM |
| CC[C@@H]1CC[C@@H]2[C@H](CC[C@]3(C)[C@@H](O[N+](=O)[O-])CC[C@@H]23)[C@H]1C(C)=O | inactive |  |  |
| C=CCC1(C(=O)OC(C)(C)C)C(OC)=C(C(=O)OC(C)(C)C)C2C1C(C(=O)OC(C)(C)C)=C(OC)C2(CC=C)C(=O)OC(C)(C)C (stereo not drawn) | inactive |  |  |
| COCOc1ccc(C2(O)Oc3cc(OCOC)ccc3C2C)c(O)c1 (stereo not drawn) |  | > 200 µM | 24 µM |
| O=C1OCC2(CO)SC(c3ccccc3)NC12 (stereo not drawn) |  | > 525 µM | > 525 µM |
